Data: patent publication US8173131B2, “Compositions and methods for modulating RSV infection and immunity” (PerkinElmer Health Sciences, Inc., priority 2000, dated 2012)

Legend:
RSV = RSV plaque reduction assay on Vero cells (Example 1); format: cell-based, RSV/A2
Procedure: Dilutions of Fkn (R&D systems), SDF-1 α (R&D systems), G glycoprotein, heparin (Sigma), G glycoprotein peptides and anti-CX3CR1 antibody were made in serum-free Dulbecco's Modified Eagle's Media (DMEM; GIBCO) containing 1% BSA (Sigma) and preincubated with the Vero cells for 1 h at 37° C. 50 μg of anti-CX3CR1 antibody or heat-inactivated (56° C., 30 min) normal rabbit sera (control) were used in all experiments. […] Dilutions of RSV were made in serum-free DMEM (GIBCO) and added to pretreated Vero cells for 2 h at 37° C. Following virus infection, DMEM (GIBCO) containing 10% FBS (Hyclone, Logan, Utah) was added to the wells. Plaques were enumerated using immunostaining for F and G glycoproteins using biotinylated monoclonal antibodies 131-2A (anti-F glycoprotein) and 130-2G (anti-G glycoprotein) as described^45.
RSV plaque reduction following treatment with G glycoprotein, Fkn, G glycoprotein peptides, anti-CX3CR1 antibody, SDF-1-α and/or heparin as described in Methods. Percent inhibition was determined from the mean plaque forming units (pfu) of treated Vero cells over saline-treated Vero cells using a dilution of RSV that would produce 40-80 pfu. p-values were determined using unpaired two-tailed analysis where p<0.05 is significant. The concentration of G glycoprotein was estimated using a molecular weight of 90 kD.

[1] = system: bronchoalveolar leukocytes (BAL); assay: BAL cell infiltration and cell types in RSV-infected mice following in vivo peptide treatment; set-up: species or system BALB/c mice; conditions: in words
Source text: Total pulmonary leukocyte trafficking following treatment of mice with peptides containing a CX3C motif (RT33 and EYp1) (A) or peptides without a CX3C motif (RT34, Δ+1, Δ−1)(B).
(§1) Flow cytometry results following treatment (d−1) of mice with PBS, RT33, RT34, Δ+1, Δ−1 and EYp1 peptides (100 μm). BAL cells were stained with antibodies against B220^+ (A, D, G), CD3^+ (B, E, H) and CD11b^+ (C, F, I) cells. Data is expressed as the total BAL cells/lung±SEM at days 3, 5, 7 and 14 post-infection. A representative experiment from 3 independent experiments is shown.
as §1, with “NK (DX5^+)” for “B220^+”, “(A, C, E) and PMN (RB6-8C5^+) cells (B,” for “(A,”, “F).” for “G), CD3^+ (B, E, H) and CD11b^+ (C, F, I) cells.”
(§2) On day −1, prior to RSV infection, mice were i.p. treated (0.1 ml/mouse) with 100 μM of G glycoprotein peptides RT33 (CWAIC) (SEQ ID NO: 12), RT34 (lacks the CX3C motif) or peptides with changes in the CX3C motif (Δ+1, Δ−1, EYp1). Control mice were treated with PBS containing a similar dilution of DMSO used to solubilize the peptides.
Mice were anesthetized with Avertin and exsanguinated by severing the right caudal artery. Bronchoalveolar leukocyte (BAL) cells were harvested by lung lavage with PBS containing 1% bovine serum albumin (BSA, Sigma). The procedure used for extracellular staining of BAL cells was modified for microculture staining as described (55,57). Briefly, BAL cells were washed in Dulbecco's PBS (GIBCO) containing 1% bovine serum albumin (Sigma), blocked with 10% normal mouse sera diluted in PBS containing 1% bovine serum albumin, and then stained (4° C., 30 min) with an appropriate dilution of FITC-conjugated or PE-conjugated anti-CD3ε (145-2C11), anti-CD45R/B220 (RA3-6B2), anti-CD8 (Ly-2), anti-neutrophil (PMN) (RB6-8C5), anti-CD11b (M1/70) and isotype antibody controls (all from Pharmingen, San Diego, Calif.).

CD3+ BAL cells = assay: Intracellular cytokine expression by CD3+ T cells following in vivo peptide treatment; set-up: species or system BALB/c mice
Procedure: as §2
Intracellular cytokine staining was modified for microculture staining as described (55, 57). Briefly, BAL cells were incubated in PBS containing Golgi Stop (Pharmingen) for 3 h at 37° C. to allow for accumulation of intracellular cytokines. The cells were washed in PBS containing 1% bovine serum albumin, blocked with 10% normal mouse sera diluted in PBS containing 1% bovine serum albumin, and stained (4° C., 30 min) with an appropriate dilution of anti-CD3 antibody, fixed and permeabilized in Cytofix/Cytoperm (Pharmingen). The cells were washed in Cytofix/Cytoperm buffer and stained (4° C., 30 min) with appropriate dilutions of anti-IL-2 (JES6-5H4), anti-IL-4 (BVD4-1D11), anti-IL-5 (TRFK5), IL-10 (JES3-16E3), anti-IFNγ (XMG1.2), or anti-TNFα (MP6-XT22) antibodies (Pharmingen) diluted in Cytofix/Cytoperm. Extra- and intracellular staining was analyzed by flow cytometry using a FACScan and Cell Quest software (Becton Dickinson, San Diego, Calif.). Total cytokine expression by CD3+ T cells was determined from the percent cytokine expression of CD3+ T cells and total number of cells recovered. The total number of CD3+ BAL cells expressing a particular cytokine was determined by multiplying the total number of BAL cells by the percent CD3+ cells expressing that particular cytokine.

[2] = system: G glycoprotein binding to 293-CX3CR1 cells; set-up: species or system human; conditions: chemokine 10 μM
Procedure: All binding studies were done on ice and either G glycoprotein or human Fkn (R&D Diagnostics, Minneapolis, Minn.) were diluted between 1 nM-100 nM in PBS (GIBCO) containing 1% bovine serum albumin (Sigma) and incubated with the 293-CX3CR1 cells or 293 control cells for 30 min at 4° C. […] Without washing, 100 pM of either Fkn or G glycoprotein was added and incubated for 30 min at 4° C. The cells were washed, blocked with FcγRIII blocking antibody (HB197) for 30 min on ice, washed and stained as appropriate with either an anti-G glycoprotein monoclonal antibody cocktail (132-5B, 132-5G, 130-2G, 232-IF) or a biotinylated anti-G glycoprotein monoclonal antibody cocktail (130-2G, 131-2G) or anti-Fkn monoclonal antibody (51637.11; R&D Diagnostics). Concentrations of 1 μg of anti-G glycoprotein monoclonal antibody (131-2G)^34, rabbit anti-CX3CR1 sera^33, and anti-CX3CR1 monoclonal antibody containing 10 μg/ml heparin were used in all experiments. […] Staining was detected with absorbed FITC-goat anti-mouse (H & L chain) monoclonal antibody (PharMingen, San Diego, Calif.) or streptavidin-PE (PharMingen) using flow cytometry (FACScan, Becton-Dickinson, Mountain View, Calif.). A 76 amino acid ^125I-Fkn polypeptide comprising the […] (NEN, Boston, Mass.) was used in radioligand studies^33. As a control, the void volume following purified G glycoprotein passaged over an anti-G glycoprotein antibody (130-2G) affinity column was examined by flow cytometry for binding to either 293 or 293-CX3CR1 cells.
For peptide inhibition studies, a series of G glycoprotein peptides were identified in the amino acid sequence of the A2 strain of RSV (GENBANK, attachment protein locus 1912305, Table 4). The peptides were synthesized using a simultaneous, multiple solid-phase peptide synthesis method on a peptide synthesizer (Perkin-Elmer Applied Biosystems, Berkeley, Calif.), and tested for homogeneity by reverse-phase liquid chromatography and capillary electrophoresis (www.biotech.cdc.gov/protein/methods). Inhibition assays were performed as described for the binding studies above.
To determine if G glycoprotein bound 293-CX3CR1 cells via CX3CR1, the ability of four reagents (anti-CX3CR1 rabbit antiserum, anti-CX3CR1 monoclonal antibody (2A9-1), Fkn and a 76 amino acid 125-I-Fkn polypeptide containing the CX3C domain) that bind to CX3CR1 to block G glycoprotein binding to 293-CX3CR1 cells was examined. In addition, to determine if binding of G glycoprotein to 293-CX3CR1 cells was dependent upon the CX3C motif, G glycoprotein peptides with a single residue insertion (Δ+1) or deletion (Δ−1) in the CX3C motif and also peptides that lacked or included the CX3C motif (Table 4) were generated. This panel of peptides was analyzed for their ability to block G glycoprotein or Fkn binding to 293-CX3CR1 cells.
Inhibition of Fkn and G glycoprotein binding to 293-CX3CR1 cells by treatment with monoclonal antibodies to G glycoprotein or CX3CR1, or treatment with G glycoprotein, Fkn, or G glycoprotein peptides in the presence or absence of heparin as described in Methods. […] The concentration of G glycoprotein was estimated using a molecular weight of 90 kD.

[3] = target: T1, Fkn binding to 293-CX3CR1 cells (Homo sapiens, UniProt P49238); conditions: chemokine 10 μM
T1 construct: host or cells: HEK 293 cells stably transfected with CX3CR1
T1 sequence (P49238 whole entry): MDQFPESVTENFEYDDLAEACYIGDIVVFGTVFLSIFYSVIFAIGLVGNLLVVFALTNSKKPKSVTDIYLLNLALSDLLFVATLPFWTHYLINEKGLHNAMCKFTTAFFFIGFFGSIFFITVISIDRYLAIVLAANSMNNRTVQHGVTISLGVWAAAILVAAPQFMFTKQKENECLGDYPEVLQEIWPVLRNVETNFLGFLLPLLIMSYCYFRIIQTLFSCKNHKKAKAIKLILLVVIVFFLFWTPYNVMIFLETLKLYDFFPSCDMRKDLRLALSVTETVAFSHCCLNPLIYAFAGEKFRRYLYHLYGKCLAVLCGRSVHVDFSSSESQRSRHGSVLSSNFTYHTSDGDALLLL

In the case of SDF-1α [reference compound], the “plaque inhibition (%)” value (RSV; 1 nM) is reported as 5%, the “plaque inhibition (%)” value (RSV; 10 nM) is reported as 7% and the “plaque inhibition (%)” value (RSV; 100 nM) is reported as 12%. For the same molecule, the “effect on RSV plaque formation / plaque number” value (RSV; in words) was “no effect on RSV plaque formation was detected”.

In the case of “TCAAACKRIPNKK [EYp1, 13-mer G glycoprotein peptide variant of RT33 with CAAAC motif]”, the “total BAL numbers compared to mice treated with RT34, Δ−1 or PBS” value ([1]; day 3 pi) is reported as “reduced BAL numbers”, the “numbers of BAL cell types (B220+, CD3+, CD11b+, NK, PMN)” value ([1]; days 3, 5, 7 and 14 pi) is reported as “increased numbers of CD3+ cells on days 5 and 7 pi” and the “course of BAL numbers” value ([1]; from day 3 to day 14 pi) is reported as “increased”. The “Total IC cytokine Expressing CD3^+ BAL cells (×10^3) ± SEM: IFNγ” value (CD3+ BAL cells; day 3 pi) was 32 ± 7.3 ×10^3, the “Total IC cytokine Expressing CD3^+ BAL cells (×10^3) ± SEM: IL-4” value (CD3+ BAL cells; day 3 pi) was 32 ± 7.2 ×10^3 and the “Total IC cytokine Expressing CD3^+ BAL cells (×10^3) ± SEM: IL-5” value (CD3+ BAL cells; day 3 pi) was 34 ± 7.7 ×10^3. For the same molecule, the “Total IC cytokine Expressing CD3^+ BAL cells (×10^3) ± SEM: IL-6” value (CD3+ BAL cells; day 3 pi) was 35 ± 8.0 ×10^3, the “Total IC cytokine Expressing CD3^+ BAL cells (×10^3) ± SEM: TNFα” value (CD3+ BAL cells; day 3 pi) was 36 ± 8.1 ×10^3 and the “Total IC cytokine Expressing CD3^+ BAL cells (×10^3) ± SEM: IL-2” value (CD3+ BAL cells; day 3 pi, peptide 24 hours prior to RSV infection) was 26 ± 6.0 ×10^3. The “Total IC cytokine Expressing CD3^+ BAL cells (×10^3) ± SEM: IFNγ” value (CD3+ BAL cells; day 5 pi) was 26 ± 5.4 ×10^3, the “Total IC cytokine Expressing CD3^+ BAL cells (×10^3) ± SEM: IL-2” value (CD3+ BAL cells; day 5 pi) was 17 ± 3.6 ×10^3 and the “Total IC cytokine Expressing CD3^+ BAL cells (×10^3) ± SEM: IL-4” value (CD3+ BAL cells; day 5 pi) was 28 ± 5.6 ×10^3. The “Total IC cytokine Expressing CD3^+ BAL cells (×10^3) ± SEM: IL-5” value (CD3+ BAL cells; day 5 pi) was 32 ± 6.5 ×10^3, the “Total IC cytokine Expressing CD3^+ BAL cells (×10^3) ± SEM: IL-6” value (CD3+ BAL cells; day 5 pi) was 19 ± 7.4 ×10^3 and the “Total IC cytokine Expressing CD3^+ BAL cells (×10^3) ± SEM: TNFα” value (CD3+ BAL cells; day 5 pi) was 41 ± 8.4 ×10^3. The “Total IC cytokine Expressing CD3^+ BAL cells (×10^3) ± SEM: IFNγ” value (CD3+ BAL cells; day 7 pi) was 18 ± 2.6 ×10^3, the “Total IC cytokine Expressing CD3^+ BAL cells (×10^3) ± SEM: IL-2” value (CD3+ BAL cells; day 7 pi) was 7.8 ± 1.1 ×10^3 and the “Total IC cytokine Expressing CD3^+ BAL cells (×10^3) ± SEM: IL-4” value (CD3+ BAL cells; day 7 pi) was 12 ± 1.6 ×10^3. For the same molecule, the “Total IC cytokine Expressing CD3^+ BAL cells (×10^3) ± SEM: IL-5” value (CD3+ BAL cells; day 7 pi) was 20 ± 2.8 ×10^3, the “Total IC cytokine Expressing CD3^+ BAL cells (×10^3) ± SEM: IL-6” value (CD3+ BAL cells; day 7 pi) was 17 ± 2.4 ×10^3 and the “Total IC cytokine Expressing CD3^+ BAL cells (×10^3) ± SEM: TNFα” value (CD3+ BAL cells; day 7 pi) was 6.8 ± 2.8 ×10^3. The “Total IC cytokine Expressing CD3^+ BAL cells (×10^3) ± SEM: IFNγ” value (CD3+ BAL cells; day 14 pi) was 5.3 ± 0.3 ×10^3, the “Total IC cytokine Expressing CD3^+ BAL cells (×10^3) ± SEM: IL-2” value (CD3+ BAL cells; day 14 pi) was 5.1 ± 0.3 ×10^3 and the “Total IC cytokine Expressing CD3^+ BAL cells (×10^3) ± SEM: IL-4” value (CD3+ BAL cells; day 14 pi) was 5.4 ± 0.3 ×10^3. The “Total IC cytokine Expressing CD3^+ BAL cells (×10^3) ± SEM: IL-5” value (CD3+ BAL cells; day 14 pi) was 7.7 ± 0.5 ×10^3, the “Total IC cytokine Expressing CD3^+ BAL cells (×10^3) ± SEM: IL-6” value (CD3+ BAL cells; day 14 pi) was 5.0 ± 0.3 ×10^3 and the “Total IC cytokine Expressing CD3^+ BAL cells (×10^3) ± SEM: TNFα” value (CD3+ BAL cells; day 14 pi) was 6.8 ± 0.5 ×10^3.

B1: IP-10: chemokine (protein, UniProt P17515 22-98, looked up)
C-X-C motif chemokine 10: IPLARTVRCNCIHIDDGPVRMRAIGKLEIIPASLSCPRVEIIATMKKNDEQRCLNPESKTIKNLMKAFSQKRSKRAP
B1 was tested, and the “Range of Inhibition (%) of G glycoprotein binding” value [2] was 0-4% and the “Range of Inhibition (%) of Fkn binding” value [3] was 0-6%.

B2: KC: growth regulated oncogene-α, KC, chemokine (protein, UniProt P12850 25-96, looked up)
Growth-regulated alpha protein: APIANELRCQCLQTMAGIHLKNIQSLKVLPSGPHCTQTEVIATLKNGREACLDPEAPLVQKIVQKMLKGVPK
B2 was tested, and the “Range of Inhibition (%) of G glycoprotein binding” value [2] was 0-6% and the “Range of Inhibition (%) of Fkn binding” value [3] was 4-6%.

B3: C10: macrophage inflammatory protein-related protein-1 (C10), chemokine (protein)
chain: GLIQEMEKEDRRYNPPIIHQGFQDTSSDCCFSYATQIPCKRFIYYFPTSGGCIKPGIIFISRRGTQVCADPSDRRVQRCLSTLKQGPRSGNKVIA
B3 was tested, and the “Range of Inhibition (%) of G glycoprotein binding” value [2] was 5-8% and the “Range of Inhibition (%) of Fkn binding” value [3] was 4-8%.

B4: MIP-2: chemokine (protein)
chain: AVVASELRCQCLKTLPRVDFKNIQSLSVTPPGPHCAQTEVIATLKGGQKVCLDPEAPLVQKIIQKILNKGKAN
For B4, the “Range of Inhibition (%) of G glycoprotein binding” value [2] was 2-8% and the “Range of Inhibition (%) of Fkn binding” value [3] was 0-4%.
